From ChEMBL document CHEMBL4130376, “Discovery of methylsulfonyl indazoles as potent and orally active respiratory syncytial Virus(RSV) fusion inhibitors” (Eur J Med Chem, 2017)

How the values were obtained:
[1] = Effective permeability of the compound by PAMPA; assay type: ADME; conditions: read-out: Peff
[2] = Metabolic stability in human liver microsomes by high-throughput screening based assay; assay type: ADME, microsome; conditions: read-out: Stability
[3] = Metabolic stability in mouse liver microsomes by high-throughput screening based assay; assay type: ADME, microsome; conditions: read-out: Stability
[4] = Metabolic stability in rat liver microsomes by high-throughput screening based assay; assay type: ADME, microsome; conditions: read-out: Stability
[5] = Half life in ICR mouse at 2 mg/kg, iv; assay type: ADME, organism-based; conditions: in vivo
Mus musculus [6] = assay: Oral bioavailability in ICR mouse at 25 mg/kg; assay type: ADME, organism-based; conditions: in vivo
[7] = Volume of distribution at steady state in ICR mouse at 2 mg/kg, iv; assay type: ADME, organism-based; conditions: in vivo, read-out: Vdss
Mus musculus [8] = assay: AUC (0 to 24 hrs) in ICR mouse at 2 mg/kg, iv; assay type: ADME, organism-based; design: time < 24 hr, dose 2 mg/kg, route intravenous; conditions: in vivo, 24 h
[9] = Tmax in ICR mouse at 25 mg/kg, po; assay type: ADME, organism-based; conditions: in vivo
[10] = Cmax in ICR mouse at 25 mg/kg, po; assay type: ADME, organism-based; design: dose 25 mg/kg, route oral; conditions: in vivo
[11] = Half life in ICR mouse at 25 mg/kg, po; assay type: ADME, organism-based; conditions: in vivo
[12] = Cmax in ICR mouse at 2 mg/kg, iv; assay type: ADME, organism-based; design: dose 2 mg/kg, route intravenous; conditions: in vivo
Mus musculus [13] = assay: AUC (0 to 24 hrs) in ICR mouse at 25 mg/kg, po; assay type: ADME, organism-based; design: dose 25 mg/kg, time < 24 hr, route oral; conditions: in vivo
[14] = Tmax in ICR mouse at 12.2 mg/kg, po; assay type: ADME, organism-based; conditions: in vivo
Mus musculus [15] = assay: Oral bioavailability in ICR mouse at 12.2 mg/kg; assay type: ADME, organism-based; conditions: in vivo
[16] = Cmax in ICR mouse at 1 mg/kg, iv; assay type: ADME, organism-based; design: dose 1 mg/kg, route intravenous; conditions: in vivo
Mus musculus [17] = assay: AUC (0 to 24 hrs) in ICR mouse at 12.2 mg/kg, po; assay type: ADME, organism-based; design: dose 12.2 mg/kg, time < 24 hr, route oral; conditions: in vivo
[18] = Cmax in ICR mouse at 12.2 mg/kg, po; assay type: ADME, organism-based; design: dose 12.2 mg/kg, route oral; conditions: in vivo
Mus musculus [19] = assay: AUC (0 to 24 hrs) in ICR mouse at 1 mg/kg, iv; assay type: ADME, organism-based; design: time < 24 hr, dose 1 mg/kg, route intravenous; conditions: in vivo
[20] = Volume of distribution at steady state in ICR mouse at 1 mg/kg, iv; assay type: ADME, organism-based; conditions: in vivo, read-out: Vdss

Structure (SMILES) | Papp [1] | CLhep predicted [2] | CLhep predicted [3] | CLhep predicted [4] | also measured
CS(=O)(=O)c1nn(Cc2nc3cc(Cl)ccc3n2CCCCC(F)(F)F)c2cnccc12 | 0.95 ×10⁻⁶ cm/s | 4.57 mL/min/kg | 22.7 mL/min/kg | 6.15 mL/min/kg | –
CS(=O)(=O)c1nn(Cc2nc3cc(Cl)ccc3n2CCCCO)c2cnccc12 | 2.42 ×10⁻⁶ cm/s | 2.58 mL/min/kg | 25.5 mL/min/kg | 20.7 mL/min/kg | half-life [5]: 17.8 min; F (Mus musculus [6]): 19%; Vd [7]: 1.08 L/kg; AUC (Mus musculus [8]): 1380 ng·h/mL; Tmax [9]: 15 min; Cmax [10]: 425 ng/mL; half-life [11]: 109 min; Cmax [12]: 1420 ng/mL; AUC (Mus musculus [13]): 580 ng·h/mL
CS(=O)(=O)c1nn(Cc2nc3cc(Cl)ccc3n2CCC(O)C(F)(F)F)c2cnccc12 (centres undefined) | 4.29 ×10⁻⁶ cm/s | 4.51 mL/min/kg | 26.5 mL/min/kg | 18 mL/min/kg | –
CS(=O)(=O)CCn1c(Cn2cc(S(C)(=O)=O)c3ccccc32)nc2ccccc21 | 4.87 ×10⁻⁶ cm/s | 7.33 to 9 mL/min/kg | 19.7 mL/min/kg | – | –
CS(=O)(=O)c1nn(Cc2nc3cc(Cl)ccc3n2CCOCCO)c2cnccc12 | 3.12 ×10⁻⁶ cm/s | 1.91 mL/min/kg | 14.2 mL/min/kg | 13.7 mL/min/kg | –
CS(=O)(=O)CCn1c(Cn2cc(S(C)(=O)=O)c3ccccc32)nc2cc(Cl)ccc21 | 2.3 ×10⁻⁶ cm/s | – | – | – | –
CS(=O)(=O)CCn1c(Cc2cn(S(C)(=O)=O)c3ccccc23)nc2ccccc21 | – | 16.5 mL/min/kg | 73.2 mL/min/kg | – | –
CS(=O)(=O)CCc1c(CN2C(=O)C3(CC3)c3ccncc32)nc2cc(Cl)ccn12 | – | 2.6 mL/min/kg | 63.5 mL/min/kg | – | –
CS(=O)(=O)c1nn(Cc2nc3cc(Cl)ccc3n2CC2COC2)c2cnccc12 | 3.22 ×10⁻⁶ cm/s | 3.9 mL/min/kg | 9 mL/min/kg | 19.8 mL/min/kg | Tmax [14]: 30 min; F (Mus musculus [15]): 23.8%; Cmax [16]: 1270 ng/mL; AUC (Mus musculus [17]): 989 ng·h/mL; Cmax [18]: 972 ng/mL; AUC (Mus musculus [19]): 2870 ng·h/mL; Vd [20]: 0.88 L/kg
